Measurements from PubChem BioAssay AID1918936 (Molecular Pharmacology Branch, DTP, NCI, 2023).

Tested on: 349418-098-R-PDC complex spheroid viability
Experiment: Anticancer human tumor 349418-098-R-PDC patient-derived lung adenocarcinoma cell line growth inhibition
Settings: for IC50: curve of first compound; for viability, T/C: stronger effect = lower value; active = viability on the fitted dose curve at most 10% of control; inactive = the rest
Procedure, shortened: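 Drug combinations with the LSD1 inhibitor iadademstat tested on tumor cells co-cultured as spheroids with endothelial cells and mesenchymal stem cells. Concentrations descended in half-log increments from clinical Cmax or 10 microM.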
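Also: spheroids exposed to agents for seven days before readout.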
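For viability, T/C in this document: 100% = DMSO vehicle control wells.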

CC1(C)CCC(CN2CCN(c3ccc(C(=O)NS(=O)(=O)c4ccc(NCC5CCOCC5)c([N+](=O)[O-])c4)c(Oc4cnc5[nH]ccc5c4)c3)CC2)=C(c2ccc(Cl)cc2)C1 + NC1CC1c1ccc(-c2cccc(O)c2)cc1
1700 nM: IC50 (second compound 10 µM)
inactive: viability, T/C (second compound 0.1 µM, first compound 0.0316 µM) 111% | viability, T/C (second compound 0.1 µM, first compound 0.1 µM) 106% | viability, T/C (second compound 0.1 µM, first compound 0.316 µM) 104% | viability, T/C (second compound 0.1 µM, first compound 1 µM) 80.5% | viability, T/C (second compound 0.1 µM, first compound 3.16 µM) 23.9% | viability, T/C (second compound 0.316 µM, first compound 0.0316 µM) 113% | viability, T/C (second compound 0.316 µM, first compound 0.1 µM) 111% | viability, T/C (second compound 0.316 µM, first compound 0.316 µM) 108% | viability, T/C (second compound 0.316 µM, first compound 1 µM) 82.5% | viability, T/C (second compound 0.316 µM, first compound 3.16 µM) 22.9% | viability, T/C (second compound 1 µM, first compound 0.0316 µM) 119% | viability, T/C (second compound 1 µM, first compound 0.1 µM) 113% | viability, T/C (second compound 1 µM, first compound 0.316 µM) 108% | viability, T/C (second compound 1 µM, first compound 1 µM) 94.1% | viability, T/C (second compound 1 µM, first compound 3.16 µM) 22.5% | viability, T/C (second compound 3.16 µM, first compound 0.0316 µM) 118% | viability, T/C (second compound 3.16 µM, first compound 0.1 µM) 109% | viability, T/C (second compound 3.16 µM, first compound 0.316 µM) 112% | viability, T/C (second compound 3.16 µM, first compound 1 µM) 95.2% | viability, T/C (second compound 3.16 µM, first compound 3.16 µM) 21.9% | viability, T/C (second compound 10 µM, first compound 0.0316 µM) 96.3% | viability, T/C (second compound 10 µM, first compound 0.1 µM) 98.9% | viability, T/C (second compound 10 µM, first compound 0.316 µM) 93.2% | viability, T/C (second compound 10 µM, first compound 1 µM) 83.7% | viability, T/C (second compound 10 µM, first compound 3.16 µM) 10.5%
active: viability, T/C (second compound 0.1 µM, first compound 10 µM) 0.38% | viability, T/C (second compound 0.316 µM, first compound 10 µM) 0.15% | viability, T/C (second compound 1 µM, first compound 10 µM) 0.17% | viability, T/C (second compound 3.16 µM, first compound 10 µM) 0.16% | viability, T/C (second compound 10 µM, first compound 10 µM) 0.58%
1860 nM: IC50 (second compound 0.1 µM)
1870 nM: IC50 (second compound 0.316 µM)
2030 nM: IC50 (second compound 1 µM) | IC50 (second compound 3.16 µM)

CCN(c1cc(-c2ccc(CN3CCOCC3)cc2)cc(C(=O)NCc2c(C)cc(C)[nH]c2=O)c1C)C1CCOCC1 + NC1CC1c1ccc(-c2cccc(O)c2)cc1
499 nM: IC50 (second compound 10 µM)
603 nM: IC50 (second compound 0.1 µM)
650 nM: IC50 (second compound 0.316 µM)
inactive: viability, T/C (second compound 0.1 µM, first compound 0.00949 µM) 116% | viability, T/C (second compound 0.1 µM, first compound 0.03 µM) 107% | viability, T/C (second compound 0.1 µM, first compound 0.0949 µM) 109% | viability, T/C (second compound 0.1 µM, first compound 0.3 µM) 74% | viability, T/C (second compound 0.1 µM, first compound 0.949 µM) 34.4% | viability, T/C (second compound 0.1 µM, first compound 3 µM) 11.4% | viability, T/C (second compound 0.316 µM, first compound 0.00949 µM) 120% | viability, T/C (second compound 0.316 µM, first compound 0.03 µM) 121% | viability, T/C (second compound 0.316 µM, first compound 0.0949 µM) 113% | viability, T/C (second compound 0.316 µM, first compound 0.3 µM) 77% | viability, T/C (second compound 0.316 µM, first compound 0.949 µM) 37.5% | viability, T/C (second compound 0.316 µM, first compound 3 µM) 11.9% | viability, T/C (second compound 1 µM, first compound 0.00949 µM) 123% | viability, T/C (second compound 1 µM, first compound 0.03 µM) 124% | viability, T/C (second compound 1 µM, first compound 0.0949 µM) 120% | viability, T/C (second compound 1 µM, first compound 0.3 µM) 89.2% | viability, T/C (second compound 1 µM, first compound 0.949 µM) 42% | viability, T/C (second compound 1 µM, first compound 3 µM) 14% | viability, T/C (second compound 3.16 µM, first compound 0.00949 µM) 126% | viability, T/C (second compound 3.16 µM, first compound 0.03 µM) 121% | viability, T/C (second compound 3.16 µM, first compound 0.0949 µM) 122% | viability, T/C (second compound 3.16 µM, first compound 0.3 µM) 89.1% | viability, T/C (second compound 3.16 µM, first compound 0.949 µM) 41.1% | viability, T/C (second compound 3.16 µM, first compound 3 µM) 14.3% | viability, T/C (second compound 10 µM, first compound 0.00949 µM) 107% | viability, T/C (second compound 10 µM, first compound 0.03 µM) 102% | viability, T/C (second compound 10 µM, first compound 0.0949 µM) 107% | viability, T/C (second compound 10 µM, first compound 0.3 µM) 70.8% | viability, T/C (second compound 10 µM, first compound 0.949 µM) 23.8% | viability, T/C (second compound 10 µM, first compound 3 µM) 11.2%
770 nM: IC50 (second compound 1 µM)
758 nM: IC50 (second compound 3.16 µM)
